These results are taken from US12172989B2, “Histone acetyltransferase (HAT) inhibitor and use thereof” (SHANGHAI INSTITUTE OF MATERIA MEDICA, CHINESE ACADEMY OF …, priority 2018, dated 2024).

Experiment [1] concerns the target T1, histone acetyltransferase p300 (Homo sapiens, UniProt Q09472).
T1 construct: purchased BPS Corporation 50071
T1 sequence (Q09472 1284-1673 limits assumed): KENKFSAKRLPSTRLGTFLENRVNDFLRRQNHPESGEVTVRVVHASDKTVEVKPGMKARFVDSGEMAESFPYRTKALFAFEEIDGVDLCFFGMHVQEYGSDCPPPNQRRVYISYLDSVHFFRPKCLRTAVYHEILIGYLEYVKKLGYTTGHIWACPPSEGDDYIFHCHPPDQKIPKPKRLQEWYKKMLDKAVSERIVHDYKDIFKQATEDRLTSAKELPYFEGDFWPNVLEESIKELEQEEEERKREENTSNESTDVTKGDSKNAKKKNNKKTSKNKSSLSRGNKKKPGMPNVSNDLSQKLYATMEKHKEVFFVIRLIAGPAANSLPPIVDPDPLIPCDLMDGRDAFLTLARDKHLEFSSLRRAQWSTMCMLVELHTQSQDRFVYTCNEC
Briefly: Histone acetyltransferase (p300) activity assay (radioisotope, [3H]-Ac-CoA). Particulars: p300 0.05 nM; histone peptide 600 nM, [3H]-Ac-CoA 250 nM; 60 min at room temperature; read-out: Inhibition rate IC50. The class given is biochemical. In outline:
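p300 (0.05 nM final) was preincubated 15 min with compound (0.25–5000 nM final), then reacted 60 min at room temperature with histone peptide (600 nM) and [3H]-Ac-CoA (250 nM). The reaction was stopped with cold Ac-CoA, and peptide-bound radioactivity was captured on Flashplate and counted to derive IC50.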

In experiment [2] the test system is human mantle cell lymphoma (MCL) cell line MAVER-1. Kind of experiment: Cell growth inhibition experiment (CellTiter-Glo), MAVER-1. Format: cell-based. Particulars: Homo sapiens, Maver1, 120 h, MAVER-1 cells treated with the compound for 5 days. How it is done: The human mantle cell lymphoma (MCL) cell line MAVER-1 (from ATCC, CRL-3008) was cultured with RPMI 1640 medium (Gibco, available from Life Technologies Corporation, 22400-089) containing […] (Gibco, available from Life Technologies, 10099-141) and 1% antibiotics (penicillin and streptomycin, available from Life Technologies Corporation, 10378016) in a CO2 cell incubator (37° C., 5% CO2). In the cell growth inhibition experiment, MAVER-1 cells in exponential growth phase were seeded on a 96-well plate (purchased from Corning Company, 3599) in a volume of 100 μL/well and a cell density of 1*10E5 cells/well. After seeded, the plate was placed in a CO2 incubator to culture for 1 h. 100 μL of a compound at different concentrations diluted in 3-fold gradient or DMSO were added in a 96-well plate containing the cells. The final concentration of the compound ranges from 0.3 to 10000 nM, and the final concentration of DMSO is 0.05% as control group. The cells were treated with the compound for 5 days. Cell viability was measured using CellTiter-Glo reagent (purchased from Promega, G7572): the cells treated with the compound for 5 days was added with CellTiter-Glo reagent at 20 μL/well, incubated at room temperature for 10 min, transferred to a white 96-well plate (OptiPlate-96, purchased from PerkinElmer, 605299) by 80 μL. Subsequently, the luminescence signal was detected by using a multifunctional microplate reader EnVision (purchased from PerkinElmer) at a wavelength of 400-700 nm. The data was analyzed by using GraphPad Prism 5.0 software to obtain IC50.
For orientation: In ATP-based viability assays light output follows the ATP content of the culture.

Experiment [3] deals with Human castration resistant prostate cancer cell line 22Rv1. Briefly: Cell growth inhibition experiment (CellTiter-Glo), 22Rv1. The class given is cell-based. Particulars: Homo sapiens, 120 h, 22Rv1 cells treated with the compound for 5 days. The method, then:
(§1) Human castration resistant prostate cancer cell line 22Rv1 and LNCaP clone FGC (22Rv1 cell line was from ATCC, CRL-2505, LNCaP clone FGC cell line was purchased from Cell Bank of the Chinese Academy of Sciences) were cultured with RPMI 1640 medium (Gibco, available from Life Technologies Corporation, 22400-089) containing 10% fetal bovine serum (Gibco, available from Life Technologies, 10099-141) and 1% antibiotics (penicillin and streptomycin, available from Life Technologies Corporation, 10378016) in a CO2 cell incubator (37° C., 5% CO2). In the cell growth inhibition experiment, 22Rv1 and LNCaP clone FGC cells in exponential growth phase were seeded on a 96-well plate (purchased from Corning Company, 3599) with a volume of 150 μL/well and a cell density of 1,500 cells/well. After seeded, the plate was placed in a CO2 incubator to incubate overnight to allow the cells to adhere. On the next day, 50 μL of a compound at different concentrations diluted in 3-fold gradient or DMSO were added in a 96-well plate containing the cells. The final concentration of the compound ranges from 0.3 to 10000 nM, and the final concentration of DMSO is 0.05% as control group. The cells were treated by the compound for 5 days. Cell viability was measured using CellTiter-Glo reagent (purchased from Promega, G7572): the cell treated with the compound for 5 days was added with CellTiter-Glo reagent at 40 μL/well, incubated at room temperature for 10 min, transferred to a white 96-well plate (OptiPlate-96, purchased from PerkinElmer, 605299) by 70 μL. Subsequently, the luminescence signal was detected using a multifunctional microplate reader EnVision (purchased from PerkinElmer) at a wavelength of 400-700 nm. The data was analyzed by using GraphPad Prism 5.0 software to obtain IC50.

Experiment [4] concerns Human castration resistant prostate cancer cell line LNCaP clone FGC. Kind of experiment: Cell growth inhibition experiment (CellTiter-Glo), LNCaP clone FGC. Particulars: Homo sapiens, 120 h, LNCaP clone FGC cells treated with the compound for 5 days. Format: cell-based. The method, then:
as §1

A word on the IC50: it is the midpoint of a concentration-inhibition curve. Take `CNC(=O)Nc1ccc2c(c1)CC[C@@]21OC(=O)N(CC(=O)N2Cc3ccccc3CC[C@H]2C(C)C)C1=O` [SYY-B019-2]: the IC50 in experiment [1] is 0.002 µM; in experiment [2] it was 0.017 µM; in experiment [3] it was 0.005 µM; in experiment [4], 0.009 µM.
The corresponding values for `CNC(=O)Nc1ccc2c(c1)CC[C@]21OC(=O)N(CC(=O)N2Cc3ccc(F)cc3CC[C@H]2C)C1=O` [SYY-B021-1] are 0.003 µM, 0.032 µM, 0.107 µM and 0.063 µM.
Taken in the same sequence, the figures for `CNC(=O)Nc1ccc2c(c1)CC[C@@]21OC(=O)N(CC(=O)N2Cc3ccc(F)cc3CC[C@H]2C)C1=O` [SYY-B021-2] were 0.003 µM, 0.022 µM, 0.024 µM and 0.013 µM.
The corresponding values for `CCC[C@@H]1CCc2ccccc2CN1C(=O)CN1C(=O)O[C@]2(CCc3cc(NC(=O)NC)ccc32)C1=O` [SYY-B023-1] are 0.004 µM, 0.023 µM, 0.05 µM and 0.065 µM.
For `CCC[C@@H]1CCc2ccccc2CN1C(=O)CN1C(=O)O[C@@]2(CCc3cc(NC(=O)NC)ccc32)C1=O` [SYY-B023-2], the IC50 was 0.002 µM in experiment [1], 0.012 µM in experiment [2], 0.003 µM in experiment [3] and 0.004 µM in experiment [4].
Take `CCC[C@H]1CCc2ccccc2CN1C(=O)CN1C(=O)O[C@@]2(CCc3cc(NC(=O)NC)ccc32)C1=O` [SYY-B024-2]: the IC50 in experiment [1] amounted to 0.024 µM; in experiment [2], 0.116 µM; in experiment [3] it was 0.077 µM; in experiment [4] it was 0.053 µM.
Take `CNC(=O)Nc1ccc2c(c1)CC[C@]21OC(=O)N(CC(=O)N2Cc3ccc(F)cc3CC[C@H]2C2CC2)C1=O` [SYY-B025-1]: the IC50 in experiment [1] is 0.0016 µM; in experiment [2] it was 0.044 µM; in experiment [3], 0.079 µM; in experiment [4], 0.067 µM.
The corresponding values for `CNC(=O)Nc1ccc2c(c1)CC[C@@]21OC(=O)N(CC(=O)N2Cc3ccc(F)cc3CC[C@H]2C2CC2)C1=O` [SYY-B025-2] are 0.0011 µM, 0.009 µM, 0.009 µM and 0.011 µM.
Taken in the same sequence, the figures for `CNC(=O)Nc1ccc2c(c1)CC[C@@]21OC(=O)N(CC(=O)N2Cc3ccc(F)cc3CC[C@@H]2C2CC2)C1=O` [SYY-B026-2] were 0.018 µM, 0.254 µM, 0.358 µM and 0.132 µM.
Turning to `CNC(=O)Nc1ccc2c(c1)CC[C@@]21OC(=O)N(CC(=O)N2Cc3ccccc3CC[C@H]2C(F)(F)F)C1=O` [SYY-B027-2], the IC50 in experiment [1] came out at 0.0031 µM; in experiment [2] it was 0.013 µM; in experiment [3], 0.023 µM; in experiment [4], 0.014 µM.
Taken in the same sequence, the figures for `CNC(=O)Nc1ccc2c(c1)CC[C@]21OC(=O)N(CC(=O)N2Cc3cc(F)ccc3OC[C@H]2C2CC2)C1=O` [SYY-B029-1] were 0.0041 µM, 0.066 µM, 0.146 µM and 0.082 µM.
The corresponding values for `CNC(=O)Nc1ccc2c(c1)CC[C@]21OC(=O)N(CC(=O)N2Cc3ccc(F)cc3CC[C@H]2C(F)(F)F)C1=O` [SYY-B031-1] are 0.0018 µM, 0.061 µM, 0.21 µM and 0.091 µM.
Taken in the same sequence, the figures for `CNC(=O)Nc1ccc2c(c1)CC[C@@]21OC(=O)N(CC(=O)N2Cc3ccc(F)cc3CC[C@H]2C(F)(F)F)C1=O` [SYY-B031-2] were 0.0019 µM, 0.018 µM, 0.023 µM and 0.066 µM.
